Legend:
Experiment in all cases: relative viability (nuclei count vs DMSO), 5 days (fraction); higher = more cells survive
[1] = compound: COc1cc2ncn(-c3cc(OCc4ccccc4C(F)(F)F)c(C(N)=O)s3)c2cc1OC + CC(=O)Nc1cccc(-n2c(=O)n(C3CC3)c(=O)c3c(Nc4ccc(I)cc4F)n(C)c(=O)c(C)c32)c1 [Trametinib] (partner 0.02 µM)
In short: (§1)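 After 5 days of treatment, lung cancer cells in 1536-well plates were fixed and stained in a single step (final 0.05% Triton X-100, 1% formaldehyde, 1 ug/ml Hoechst) and their nuclei counted on 4× images. Treatment had been applied by pin tool the day after seeding as one drug alone or as a fixed anchor-drug dose with five library-drug doses (not always all listed) in √10 steps. Relative viability is the nuclei count of treated wells divided by that of vehicle wells, and values are medians of duplicate plates.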

[2] = compound: COc1cc2ncn(-c3cc(OCc4ccccc4C(F)(F)F)c(C(N)=O)s3)c2cc1OC + C[C@]1(O)C[C@@H](c2nc(-c3ccc4ccc(-c5ccccc5)nc4c3)c3c(N)nccn32)C1 [Linsitinib] (partner 1 µM)
In short: as §1

[3] = compound: COc1cc2ncn(-c3cc(OCc4ccccc4C(F)(F)F)c(C(N)=O)s3)c2cc1OC + COc1cccc2cc(-c3nc([C@H]4CC[C@H](C(=O)O)CC4)n4ncnc(N)c34)[nH]c12 [OSI-027] (partner 0.5 µM)
In short: as §1

[4] = compound: COc1cc2ncn(-c3cc(OCc4ccccc4C(F)(F)F)c(C(N)=O)s3)c2cc1OC + CS(=O)(=O)CCNCc1ccc(-c2ccc3ncnc(Nc4ccc(OCc5cccc(F)c5)c(Cl)c4)c3c2)o1 [Lapatinib] (partner 2 µM)
In short: as §1

Row | Cell Line | relative viability ([1]; first compound 0.05 µM) | relative viability ([1]; first compound 0.1581 µM) | relative viability ([1]; first compound 0.5 µM) | relative viability ([1]; first compound 1.581 µM) | relative viability ([1]; first compound 5 µM) | relative viability ([2]; first compound 0.05 µM) | relative viability ([2]; first compound 0.1581 µM) | relative viability ([2]; first compound 0.5 µM) | relative viability ([2]; first compound 1.581 µM) | relative viability ([2]; first compound 5 µM) | relative viability ([3]; first compound 0.05 µM) | relative viability ([3]; first compound 0.1581 µM) | relative viability ([3]; first compound 0.5 µM) | relative viability ([3]; first compound 1.581 µM) | relative viability ([3]; first compound 5 µM) | relative viability ([4]; first compound 0.05 µM) | relative viability ([4]; first compound 0.1581 µM) | relative viability ([4]; first compound 0.5 µM) | relative viability ([4]; first compound 1.581 µM) | relative viability ([4]; first compound 5 µM)
1 | NCI-H2085 | 0.332 | 0.614 | 0.421 | 0.221 | 0.2 | 0.885 | 0.731 | 0.601 | 0.168 | 0.416 | 0.739 | 0.731 | 0.316 | 0.295 | 0.203 | 0.824 | 0.748 | 0.527 | 0.347 | 0.322
2 | NCI-H2087 | 0.239 | 0.196 | 0.143 | 0.0778 | 0.111 | 0.995 | 0.981 | 0.307 | 0.168 | 0.195 | 0.747 | 0.471 | 0.181 | 0.101 | 0.0877 | 0.995 | 1.06 | 0.582 | 0.175 | 0.121
3 | NCI-H2126 | 0.535 | 0.582 | 0.478 | 0.27 | 0.205 | 0.721 | 0.772 | 0.587 | 0.292 | 0.264 | 0.715 | 0.771 | 0.604 | 0.289 | 0.22 | 0.772 | 0.776 | 0.636 | 0.352 | 0.244
4 | NCI-H2228 | 0.409 | 0.268 | 0.188 | 0.116 | 0.136 | 0.525 | 0.52 | 0.253 | 0.176 | 0.231 | 0.662 | 0.558 | 0.192 | 0.134 | 0.179 | 1.26 | 0.998 | 0.297 | 0.162 | 0.251
5 | NCI-H2347 | 0.287 | 0.28 | 0.299 | 0.268 | 0.282 | 0.99 | 0.915 | 0.84 | 0.572 | 0.759 | 0.488 | 0.492 | 0.326 | 0.308 | 0.375 | 0.943 | 0.788 | 0.858 | 0.507 | 0.62
6 | NCI-H2405 | 0.672 | 0.412 | 0.47 | 0.367 | 0.311 | 0.99 | 0.757 | 0.372 | 0.424 | 0.386 | 0.647 | 0.613 | 0.384 | 0.357 | 0.268 | 1.12 | 0.882 | 0.669 | 0.402 | 0.323
7 | NCI-H3122 | 0.209 | 0.213 | 0.143 | 0.135 | 0.155 | 0.943 | 1.07 | 0.256 | 0.184 | 0.221 | 1.01 | 0.555 | 0.124 | 0.113 | 0.157 | 1.04 | 0.58 | 0.479 | 0.224 | 0.244
8 | PC-3 [JPC-3] | 0.697 | 0.698 | 0.536 | 0.407 | 0.279 | 0.91 | 0.945 | 0.744 | 0.309 | 0.286 | 0.79 | 0.767 | 0.423 | 0.169 | 0.198 | 0.443 | 0.508 | 0.37 | 0.227 | 0.263
9 | PC-14 | 0.555 | 0.727 | 0.281 | 0.053 | 0.0472 | 1.05 | 0.906 | 0.463 | – | 0.106 | 0.861 | 0.904 | 0.254 | 0.0302 | 0.027 | 0.33 | 0.353 | 0.318 | – | 0.278
10 | RERF-LC-KJ | 0.935 | 0.915 | 0.57 | 0.456 | 0.5 | 0.806 | 0.901 | 0.559 | – | 0.357 | 0.534 | 0.494 | 0.226 | 0.205 | 0.253 | 0.939 | 0.987 | 0.839 | – | 0.689
11 | SK-LU-1 | 0.469 | 0.297 | 0.324 | 0.295 | 0.223 | 1.28 | 1.01 | 0.395 | 0.399 | 0.295 | 0.33 | 0.332 | 0.168 | 0.196 | 0.188 | 0.833 | 0.842 | 0.427 | 0.246 | 0.197
12 | SK-MES-1 | 0.578 | 0.623 | 0.538 | 0.177 | 0.228 | 1.03 | 1.01 | 0.745 | – | 0.362 | 0.554 | 0.602 | 0.219 | 0.129 | 0.143 | 0.445 | 0.459 | 0.482 | – | 0.335
13 | SW 1573 | 0.545 | 0.56 | 0.41 | 0.11 | 0.0977 | 0.733 | 0.869 | 0.514 | 0.173 | 0.275 | 0.757 | 0.606 | 0.281 | 0.129 | 0.105 | 1.14 | 0.445 | 0.918 | 0.217 | 0.739
14 | UMC-11 | 0.543 | 0.195 | 0.194 | 0.156 | 0.12 | 0.962 | 0.912 | 0.274 | 0.152 | 0.136 | 0.469 | 0.34 | 0.147 | 0.169 | 0.14 | 0.991 | 0.917 | 0.348 | 0.195 | 0.136

From the supplement of paper PMC10307832
